# Reference: patent US8785380B2 (priority 2011, dated 2014)
# Key:
# [1] = In vitro release of curcumin at pH 6.8 and pH 1.2, 37 °C; type: physicochemical; conditions: for Cumulative percent of release of curcumin: 37 °C, after 24 hour
# Experimental: Each data point is an average of 3 measurements (n=3) performed under identical conditions. […] Studies were performed in triplicate and mean cumulative percentage of released curcumin was calculated and plotted against time. […] This could be attributed to the very slow initial swelling of polysaccharide chains in water and its further dissolution to allow the leaching of entrapped curcumin into the solution in the dissolution flask.
# [2] = male, Wistar albino, rat, in vivo, po, 250 mg/kg
# Experimental: Concentration was determined by HPLC/PDA detection.
# […] blood was collected after each time point, ca. 0, 0.5, 1, 3, 5, 10 and 24 hours respectively into heparinized tubes and centrifuged at 6000×g for 15 minutes. Plasma was decanted and stored at −80° C. until analysis. […] Briefly, 1 mL of plasma was extracted with 3×10 mL of ethyl acetate and is dried over anhydrous sodium sulphate and evaporated to dryness. The residue was then made up to 10 mL with methanol and 20 μL was injected to Shimadzu model LC-20 AT HPLC fitted with a PDA detector model M20A using a reverse phase C18 column (Phenomenex 250×4.6 mm, 5μ) and methanol mobile phase monitored at 420 nm.
# Curcuminoid retention time was confirmed by repeated 10 analyses at 50 mg level on same column under identical conditions. […] Analysis was performed by incorporating a Waters Alliance LC fitted with Waters 3100 ESI mass detector.
# [3] = human, in vivo, po
# Experimental: The enhancement of bioavailability was also tested on human volunteers of age group between 25 to 50, who were healthy and not involved in any medication or health supplementation. The volunteers were not allowed to take turmeric-containing food for two days prior to the test.
# 6 mL blood of each volunteer was withdrawn at 0, 0.5, 1, 3, 5, 8 and 24 hours respectively and plasma samples were deep-frozen at −80° C. till analysis.
smiles,measurement,setting,value
"COc1cc(/C=C/C(=O)CC(=O)/C=C/c2ccc(O)c(OC)c2)ccc1O [unformulated curcumin, curcumin]",curcumin dissolved,[1]; after 24 hours,around 0.4%
same,Cumulative percent of release of curcumin,[1]; pH 1.2 0.1M HCl,0.06%
same,Cumulative percent of release of curcumin,[1]; pH 6.8 phosphate buffer,0.08%
same,Tmax (time taken to reach maximum concentration in plasma),[2],3 h
same,time of maximum absorption of curcuminoids in the plasma,[3],around 30 min
